Measurements from patent US11744818B2, “Application of trans-1,3-dilinolein in the preparation of medicaments for treating gastric cancer, stomachic tonic, health products and foods” (Lanzhou University, priority 2021, dated 2023).

Experiments:
[1] = system: human gastric mucosal epithelial cell line GES-1; assay: Proliferation of GES-1 cells (CCK8, 48 hours); type: cell-based; conditions: for effect on the proliferation of GES-1: 25 μM to 400 μm, 48 hours
Description: (§1) At 37° C. and 5% CO2, human gastric cancer cell line HGC-27 cells and human gastric mucosal epithelial cell line GES-1 cells (coming from China Center for Type Culture Collection (Wuhan, China)) are respectively cultured in RPMI Medium Modified (Hyclone, SH30809.01) and Dulbecco's Modified Eagle's Medium-high glucose (Sigma, D6429), in which 10% fetal calf serum (Gibco, 10270-106) and 1% penicillin-streptomycin (Gibco, 15140-122) are supplemented.
The cytotoxicity of GES-1 cells by trans-1,3-dilinolein is determined. 10000 cells are plated in a 96-well plate, and each well is added with 100 μL medium. 12 hours after cell attachment, each well is given 100 μL normal medium that contained different concentrations (0 μM, 6.25 μM, 12.5 μM, 25 μM, 50 μM, 100 μM, 200 μM, 400 μM, 800 μM, 1000 μM) of trans-1,3-dilinolein and had been preheated, and cultured in incubators under the conditions of 5% CO2, 37° C., normal oxygen and 1% oxygen respectively for 48 hours. The medium in each well is drawn, and serum-free medium is added into each well to formulate 60 μL CCK8 (ABMole BioScience) at 1/11 the initial concentration, which are correspondingly incubated in incubators under the conditions of 5% CO2, 37° C., normal oxygen and 1% oxygen for 40 minutes. The absorbance at 450 nm is determined with a microplate reader (Thermo Scientific).
(§2) Two-side Student's t-test is conducted by using EXCEL to determine the statistical significance of two groups of measurements. P value<0.05 is considered to be statistically significant. Unless otherwise specified, all data are expressed as mean ±standard deviation.

[2] = system: human gastric cancer cell line HGC-27; assay: Cytotoxicity to HGC-27 cells (MTS, 48 hours); type: cell-based; conditions: for killing of gastric cancer cells: concentration of 300 μm and more; for killing effect on HGC-27: 0-500 μM, 48 hours
Description: as §1
The cytotoxicity of HGC-27 cells by trans-1,3-dilinolein is determined. 5000 cells are plated in a 96-well plate, and each well is added with 100 μL medium. 12 hours after cell attachment, each well is given 100 μL normal medium that contained different concentrations (0 μM, 50 μM, 100 μM, 200 μM, 300 μM, 400 μM, 500 μM) of trans-1,3-dilinolein and had been preheated, and cultured in incubators under the conditions of 5% CO2, 37° C., normal oxygen and 1% oxygen respectively for 48 hours. The medium in each well is drawn, and serum-free medium is added into each well to formulate 60 μL MTS (Promega) at ⅙ the initial concentration, which are correspondingly incubated in incubators under the conditions of 5% CO2, 37° C., normal oxygen and 1% oxygen for 2 hours. The absorbance at 490 nm is determined with a microplate reader (Thermo Scientific).
as §2

For `CCCCC/C=C/C/C=C/CCCCCCCC(=O)OCC(O)COC(=O)CCCCCCC/C=C/C/C=C/CCCCC` [trans-1,3-dilinolein, [2-hydroxy-3-[(9E,12E)-octadeca-9,12-dienoyl]oxypropyl](9E,12E)-octadeca-9,12-dienoate], the “proliferation of normal gastric mucosal epithelial cells” value ([1]; concentration of 300 μm and more) was “significantly promote the proliferation”, the “effect on the proliferation of GES-1” value ([1]; hypoxic (1% oxygen), FIG. 4B) was “promotion effects on the proliferation” and the “effect on the proliferation of GES-1” value ([1]; normal oxygen, FIG. 4A) was “promotion effects on the proliferation”. For the same molecule, the “killing of gastric cancer cells” value ([2]; hypoxic conditions compared with normal oxygen) was “the killing effect is more significant”, the “killing of gastric cancer cells” value ([2]; normal oxygen) was “kills gastric cancer cells significantly” and the “killing effect on HGC-27” value ([2]; hypoxic (1% oxygen) compared with normal oxygen, FIG. 4D) was “stronger killing effect”. For the same molecule, the “killing effect on HGC-27” value ([2]; normal oxygen, FIG. 4C) was “concentration-dependent killing effect”.
